Legend:
Type in all cases: in vivo
Digitaria sanguinalis = test: Example B: post-emergence herbicidal application, pot test
Source text: (§1) Dans des pots de 7 x 7 x 8 cm remplis de terre agricole légère, on sème un nombre de graines déterminé en fonction de l'espèce végétale et de la grosseur de la graine.
(§2) On recouvre ensuite les graines d'une couche de terre d'environ 3 mm d'épaisseur et on laisse germer la graine jusqu'à ce qu'elle donne naissance à une plantule au stade convenable. Le stade de traitement pour les graminées est le stade "deuxième feuille en formation ". Le stade de traitement pour les dicotylédones, est le stade "cotylédons étalés, première feuille vraie en développement".
(§3) Les pots sont alors traités par pulvérisation de bouillie en quantité correspondant à une dose volumique d'application de 500 l/ha et contenant la matière active à la concentration désirée.
(§4) La bouille a été préparée de la même manière qu'à l'exemple A.
(§5) Les pots traités sont ensuite placés dans des bacs destinés à recevoir l'eau d'arrosage, en subirrigation, et maintenus pendant 24 jours à température ambiante sous 70 % d'humidité relative.
(§6) Au bout de 24 jours, on mesure un pourcentage (D) de destruction du nombre de pieds dans le pot traité par rapport au nombre de plantes dans les pots non traités (témoin). On mesure, sur les plantes traitées restantes, le pourcentage de réduction de taille (RT) par rapport aux plantes témoin.
(§7) Le pourcentage du volume foliaire non détruit par le produit est donc donné par la formule : [formula]
(§8) Cette valeur A est transformée en notation de 0 à 5 selon l'échelle suivante :
(§9) Les résultats obtenus sont présentés après le tableau A pour des doses d'application de 4000 g/ha.

Echinochloa crusgalli = test: as above; conditions: 4000 g/ha, 576 h
Source text: as §1, §2, §3, §4, §5, §6, §7, §8, §9

Ipomea purpurea = test: as above
Source text: as §1, §2, §3, §4, §5, §6, §7, §8, §9

Lolium multiflorum = test: as above
Source text: as §1, §2, §3, §4, §5, §6, §7, §8, §9

Sinapis alba [1] = test: as above
Source text: as §1, §2, §3, §4, §5, §6, §7, §8, §9

Solanum nigrum [2] = test: as above
Source text: as §1, §2, §3, §4, §5, §6, §7, §8, §9

Ipomea pupurea = test: Example C: selectivity test in major crops, post-emergence application
Source text: as §1
as §2, with “formation".” for “formation ".”
as §3
(§10) La bouillie a été préparée de la même manière qu'à l'exemple A.
as §5, §6
(§11) Le pourcentage de volume foliaire non détruit par le produit est donc donné par la formule : [formula]
as §8
(§12) Ainsi, un produit est jugé comme sélectif vis à vis de la culture lorsque la valeur A notée est de 0 ou 1.
(§13) Les résultats obtenus sont présentés dans l'exemple C pour des doses d'application comprises entre 0,5 et 4 kg de matière active par hectare selon les produits.

Oryza sativa = test: as above; conditions: crop (Riz), 24 days, score 0-5, 0 or 1 = selective; note: ranges in brackets are in %
Source text: as §1
as §2, with “formation".” for “formation ".”
as §3, §10, §5, §6, §11, §8, §12, §13

Sesbania exaltata = test: as above
Source text: as §1
as §2, with “formation".” for “formation ".”
as §3, §10, §5, §6, §11, §8, §12, §13

Sinapis alba [3] = test: as above
Source text: as §1
as §2, with “formation".” for “formation ".”
as §3, §10, §5, §6, §11, §8, §12, §13

Solanum nigrum [4] = test: as above
Source text: as §1
as §2, with “formation".” for “formation ".”
as §3, §10, §5, §6, §11, §8, §12, §13

Triticum aestivum = test: as above; conditions: crop (Blé), 24 days, score 0-5, 0 or 1 = selective; note: ranges in brackets are in %
Source text: as §1
as §2, with “formation".” for “formation ".”
as §3, §10, §5, §6, §11, §8, §12, §13

Xanthium pennsylvanicum = test: as above
Source text: as §1
as §2, with “formation".” for “formation ".”
as §3, §10, §5, §6, §11, §8, §12, §13

Zea mays = test: as above; conditions: crop (Maïs), 24 days, score 0-5, 0 or 1 = selective; note: ranges in brackets are in %
Source text: as §1
as §2, with “formation".” for “formation ".”
as §3, §10, §5, §6, §11, §8, §12, §13

[5] = 4 kg/ha, rated after 24 days, score 0-5 from % leaf volume not destroyed
[6] = weed, dose 2 kg/ha, 24 days, score 0-5

CN(C)S(=O)(=O)n1nc(-c2ccccc2)nc1-c1ncccc1C(=O)O [compound 1, Sel d'isopropylamine de 3 -(3 - carboxy 2 - pyridyl) 2 - N,N dimethyl sulfamoyl 5 - phényl 1,2,4 - triazole]
ACTIVITE DE POST-LEVEE DIG (Digitaria sanguinalis; 4000 g/ha, 576 h): 0 (90 à 100) | ACTIVITE DE POST-LEVEE ECH (Echinochloa crusgalli): 0 (90 à 100) | ACTIVITE DE POST-LEVEE IPO (Ipomea purpurea; 4000 g/ha, 576 h): 3 (30 à 50) | ACTIVITE DE POST-LEVEE LOL (Lolium multiflorum; 4000 g/ha, 576 h): 0 (90 à 100) | ACTIVITE DE POST-LEVEE SIN (Sinapis alba [1]; 4000 g/ha, 576 h): 5 (O à 10) | ACTIVITE DE POST-LEVEE SOL (Solanum nigrum [2]; 4000 g/ha, 576 h): 5 (O à 10) | ACTIVITE HERBICIDE DE POST LEVEE I P O (Ipomea pupurea; 1000 g/ha, 576 h): 4 (10 à 30) | ACTIVITE HERBICIDE DE POST LEVEE O R Y (Oryza sativa; dose 1 kg/ha): 0 (90 à 100) | ACTIVITE HERBICIDE DE POST LEVEE S E S (Sesbania exaltata; 1000 g/ha, 576 h): 5 (O à 10) | ACTIVITE HERBICIDE DE POST LEVEE S I N (Sinapis alba [3]; 1000 g/ha, 576 h): 5 (O à 10) | ACTIVITE HERBICIDE DE POST LEVEE S O L (Solanum nigrum [4]; 1000 g/ha, 576 h): 5 (O à 10) | ACTIVITE HERBICIDE DE POST LEVEE T R Z (Triticum aestivum; dose 1 kg/ha): 0 (90 à 100) | ACTIVITE HERBICIDE DE POST LEVEE X A N (Xanthium pennsylvanicum; 1000 g/ha, 576 h): 4 (10 à 30) | ACTIVITE HERBICIDE DE POST LEVEE Z E A (Zea mays; dose 1 kg/ha): 0 (90 à 100)

CN(C)S(=O)(=O)n1nc(-c2ccccc2)nc1-c1ncccc1C(=O)O [compound 7, Acide 3 - (3 - carboxy 2 - pyridyl) 2 - N,N - diméthyl sulfamoyl 5 - phényl 1,2,4 -triazole]
ACTIVITE DE POST-LEVEE DIG (Digitaria sanguinalis; [5]): 1 (70 à 90) | ACTIVITE DE POST-LEVEE IPO (Ipomea purpurea; [5]): 4 (10 à 30) | ACTIVITE DE POST-LEVEE LOL (Lolium multiflorum; [5]): 1 (70 à 90) | ACTIVITE DE POST-LEVEE SIN (Sinapis alba [1]; [5]): 5 (O à 10) | ACTIVITE DE POST-LEVEE SOL (Solanum nigrum [2]; [5]): 5 (O à 10) | ACTIVITE HERBICIDE DE POST LEVEE I P O (Ipomea pupurea; weed, post-emergence, dose 2 kg/ha, 24 days, score 0-5): 4 (10 à 30) | ACTIVITE HERBICIDE DE POST LEVEE O R Y (Oryza sativa; dose 2 kg/ha): 0 (90 à 100) | ACTIVITE HERBICIDE DE POST LEVEE S E S (Sesbania exaltata; [6]): 5 (O à 10) | ACTIVITE HERBICIDE DE POST LEVEE S I N (Sinapis alba [3]; [6]): 5 (O à 10) | ACTIVITE HERBICIDE DE POST LEVEE S O L (Solanum nigrum [4]; [6]): 4 (10 à 30) | ACTIVITE HERBICIDE DE POST LEVEE T R Z (Triticum aestivum; dose 2 kg/ha): 0 (90 à 100) | ACTIVITE HERBICIDE DE POST LEVEE X A N (Xanthium pennsylvanicum; [6]): 4 (10 à 30) | ACTIVITE HERBICIDE DE POST LEVEE Z E A (Zea mays; dose 2 kg/ha): 0 (90 à 100)
